The test system of the assay is 922993-354-T-J3-PDC complex spheroids, viability, % test/control. As to the kind of experiment: Anticancer human tumor 922993-354-T-J3-PDC patient-derived endometrial carcinoma cell line growth inhibition [CLK]. The conditions noted are these: for viability, T/C: stronger effect = lower value. The text has this:
A high-throughput screen of multi-cell type tumor spheroids was designed to identify active combinations of […] and targeted small molecules. Complex spheroids include a stromal component modeled by human endothelial cells (HUVEC) and fibroblasts modeled by human mesenchymal stem cells (MSCs). The concentration ranges selected for each drug and investigational agent were based upon clinically achievable concentrations if the clinical Cmax of the agent was known.
Compounds. The drugs and investigational agents: cirtuvivint (SM08502; NSC835563), CC-671 (NSC850746), vemurafenib (NSC761431), tapotoclax (NSC804041), sotorasib (NSC818433), adagrasib (NSC831453), MRTX-1133 (NSC836407), BAY2416964 (NSC825713), copanlisib (NSC816437), inavolisib (NSC800729), abemaciclib (NSC768073), osimertinib (NSC779217), entinostat (NSC756642), eltanexor (KPT-8602, NSC794443), venetoclax (NSC766270), ceralasertib (NSC777638), bortezomib (NSC756655), olaparib (NSC753686), talazoparib (NSC767125), alisertib (NSC759677), peposertib (NSC802822), gemcitabine (NSC613327), 5-fluorouracil (NSC19893), SN-38 (NSC673596), oxaliplatin (NSC266046), paclitaxel (NSC125973), and doxorubicin (NSC123127), were obtained from the National Cancer Institute (NCI) Developmental Therapeutics Program Chemical Repository. The FDA-approved anticancer drug set is available from the Developmental Therapeutics Program at https://dtp.cancer.gov/organization/dscb/obtaining/available plates.htm. […] The stock solutions were prepared in dimethyl sulfoxide (DMSO, Sigma-Aldrich, St. Louis, MO, cat. D2650), except for the platinum complexes which were prepared in saline (Quality Biological, Gaithersburg, MD, cat. 114-055-101), at 800-fold the tested concentration and stored at -70 degrees C prior to their use. All drugs and investigational agents were tested over a range starting from a high concentration at or near the clinical Cmax and decreasing in half-log increments. If the clinical Cmax for an agent had not been determined, the highest concentration tested was 10 microM.
Cell Culture. All cells were maintained in an incubator at 37 degrees C and 5% CO2 with 95% humidity. The PDC lines were cultured according to standard operating procedures established by the NCI PDMR. Briefly, all PDCs were thawed and cultured in Matrigel-coated flasks prepared with a working solution of 1X Ham's F-12 nutrient mix, without supplementation (Invitrogen, Waltham, MA, cat. 11765054), 100 U/mL penicillin-streptomycin (Invitrogen, cat. 15140122), and 2.5% Matrigel (Corning Inc., Corning, NY, cat. 354248) for the first three passages. The 947758-054-R-J2-PDC line was cultured in 6B/Colon 1A media, which includes advanced DMEM/F-12 (Thermo Fisher Scientific, cat. 12634028), 10 mM HEPES (Thermo Fisher Scientific, cat. 15630080), 1X GlutaMAX supplement (Thermo Fisher Scientific, cat. 35050061), 0.1 mg/mL primocin (InvivoGen, cat. ant-pm-2), 10% defined fetal bovine serum, heat inactivated (HyClone Laboratories Inc., cat. SH30070.03HI), 1.25 mM N-Acetyl-L-cysteine (Sigma-Aldrich, cat. A9165), 10 mM nicotinamide (Sigma-Aldrich, cat. N0636), 1X B-27 supplement (Thermo Fisher Scientific, cat. 17504044), 1X N-2 supplement (Thermo Fisher Scientific, cat. 17502048), and 10 microM Y-27632 dihydrochloride (Tocris Bioscience, cat. 1254). The 876862-298-R-J1-PDC was cultured in 6E media, which includes all 6B/Colon 1A media components plus 50% L-WRN conditioned media (ATCC, cat. CRL-3276), 50 ng/mL recombinant human EGF recombinant protein (hEGF; Thermo Fisher Scientific, cat. PHG0311), 10 ng/mL recombinant human fibroblast growth factor 10 (hGFG-10; PeproTech, cat. 100-26), 1 ng/mL recombinant human fibroblast growth factor 2 (hFGF-2; PeproTech, cat. 100-18B), and 1 µM prostaglandin E2 (PGE2; Tocris, cat. 2296). The 227483-062-R1-J1-PDC line was cultured in Panc media, containing all 6E components except hFGF-2, with the addition of 500 nM SB-431542 (Selleckchem, cat. S1067) and 10 nM gastrin (Tocris, cat. 3006). […]

Values joined by “and” are separate entries in the source; they are usually repeats but may differ in a detail not shown here. Identical values can stand only once.
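Also: spheroids exposed to the agents for 7 days before readout.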

As a reminder, the viability, T/C is the result in the treated group divided by that in the control group, in per cent. In general, IC50 refers to the concentration needed to halve the response being measured. Take `CCCS(=O)(=O)Nc1ccc(F)c(C(=O)c2c[nH]c3ncc(-c4ccc(Cl)cc4)cc23)c1F`: the viability, T/C reads like this: (compound 0.0316 µM) 113% and 92.8%; (compound 0.1 µM) 79.7% and 76.8%; (compound 0.316 µM) 97.7% and 113%; (compound 1 µM) 111% and 94.1%; (compound 3.16 µM) 65.2% and 95.7%; (compound 10 µM) 59% and 65.5%. Also, the IC50 (curve of compound) is over 10000 nM.

As to `CCN1CCN(Cc2ccc(Nc3ncc(F)c(-c4cc(F)c5nc(C)n(C(C)C)c5c4)n3)nc2)CC1`, the viability, T/C was 94.4% and 96.9% (compound 0.00316 µM); 91.2% and 85.8% (compound 0.01 µM); 94.2% and 84.1% (compound 0.0316 µM); 99.8% and 93.6% (compound 0.1 µM); 72% and 73.3% (compound 0.316 µM); 59.6% and 50.1% (compound 1 µM). Besides, the IC50 (curve of compound) is over 1000 nM.

For the compound `CCc1c2c(nc3ccc(O)cc13)-c1cc3c(c(=O)n1C2)COC(=O)[C@]3(O)CC`, the viability, T/C (compound 0.00316 µM) is 84.6% and 97.6%; the viability, T/C (compound 0.01 µM) is 38% and 69.2%; the viability, T/C (compound 0.0316 µM) is 12.8% and 21.2%; the viability, T/C (compound 0.1 µM) is 13.1% and 16%; the viability, T/C (compound 0.316 µM) was 17% and 25.4%; the viability, T/C (compound 1 µM) is 22% and 27.1%. For the same compound, the IC50 (curve of compound) was 7.43 nM and 16.1 nM.

Regarding `CNC(=O)c1ccc(Nc2nc(OC3CCCC3)c3c(-c4ccc5nc(C)oc5c4)c[nH]c3n2)c(OC)c1`, the viability, T/C by setting is: (compound 0.0316 µM) 106% [middle of 12 runs]; (compound 0.1 µM) 107% [middle of 12 runs]; (compound 1 µM) 39.3% [middle of 12 runs]; (compound 3.16 µM) 34.4% [middle of 12 runs]; (compound 10 µM) 33.4% [middle of 12 runs]. Moreover, under “compound alone, run of 09/19/2023”, the IC50 is 557 nM [middle of 12 runs].

Regarding `COC1C=CCC(C)C(C)S(=O)(=O)NC(=O)c2ccc3c(c2)N(CC2CCC21)CC1(CCCc2cc(Cl)ccc21)CO3` (configuration not stated), the viability, T/C is 99.2% and 106% (compound 0.0316 µM); 99.9% and 97.5% (compound 0.1 µM); 103% and 106% (compound 0.316 µM); 84.5% and 89.9% (compound 1 µM); 68.4% and 84% (compound 3.16 µM); 13.7% and 21.5% (compound 10 µM). Moreover, the 50% inhibitory concentration (IC50) (curve of compound) is 4570 nM and 5820 nM.

As for `COc1c(OCCCN2CCOCC2)ccc2c3n(c(=NC(=O)c4cnc(N)nc4)nc12)CCN3`, the viability, T/C was 109% and 111% (compound 0.00316 µM); 89.1% and 90.3% (compound 0.01 µM); 75.1% and 91.2% (compound 0.0316 µM); 54.6% and 68.8% (compound 0.1 µM); 30.3% and 40.4% (compound 0.316 µM); 9.62% and 15.9% (compound 1 µM). Under “curve of compound”, the IC50 was 118 nM and 226 nM.

Take `Cn1ncnc1[C@H]1c2n[nH]c(=O)c3cc(F)cc(c23)N[C@@H]1c1ccc(F)cc1`: the viability, T/C by setting is: (compound 0.000316 µM) 94.9% and 97.8%; (compound 0.001 µM) 80.7% and 87.4%; (compound 0.00316 µM) 104% and 100%; (compound 0.01 µM) 124% and 103%; (compound 0.0316 µM) 104% and 98.2%; (compound 0.1 µM) 75.3% and 72.6%. Further, the IC50 (curve of compound) was over 100 nM.

Take `NC(=O)C(=Cn1cnc(-c2cc(C(F)(F)F)cc(C(F)(F)F)c2)n1)c1cncnc1`: the viability, T/C runs as follows: (compound 0.00949 µM) 99% and 121%; (compound 0.03 µM) 107% and 106%; (compound 0.0949 µM) 64.8% and 96.1%; (compound 0.3 µM) 47.6% and 68.7%; (compound 0.949 µM) 46.4% and 56.8%; (compound 3 µM) 24.8% and 32.5%. Besides, the IC50 (curve of compound) was 187 nM and 1170 nM.

For `Nc1ccccc1NC(=O)c1ccc(CNC(=O)OCc2cccnc2)cc1`, the viability, T/C reads like this: (compound 0.0316 µM) 105% and 111%; (compound 0.1 µM) 71.8% and 85.9%; (compound 0.316 µM) 95.8% and 95.2%; (compound 1 µM) 71.8% and 81.7%; (compound 3.16 µM) 64.9% and 70.1%; (compound 10 µM) 53.4% and 55.2%. Also, where the note is “curve of compound”, the half-inhibitory concentration (IC50) is over 10000 nM.

The record behind these values is PubChem BioAssay AID2060606 (Molecular Pharmacology Branch, DTP, NCI, 2025).
